Experiment: xn = mol fraction of the nth substance listed
Details: Liquid; for speed of sound: Pulse-echo method

CCCCCCCCCCCC [dodecane] + CCCCCCC
Details	mass density [kg/m3]	speed of sound [m/s]
292.85 K, 15200 kPa, x2 = 0.4999	–	1334.1
292.85 K, 15200 kPa, x2 = 0.97	–	1263.4
292.85 K, 30390 kPa, x2 = 0.4999	–	1411.6
292.85 K, 30390 kPa, x2 = 0.97	–	1348.3
292.85 K, 45590 kPa, x2 = 0.4999	–	1480.8
292.85 K, 60790 kPa, x2 = 0.4999	–	1543.7
292.85 K, 60790 kPa, x2 = 0.97	–	1490.4
292.85 K, 75990 kPa, x2 = 0.4999	–	1602.4
292.85 K, 75990 kPa, x2 = 0.97	–	1552
292.85 K, 91180 kPa, x2 = 0.4999	–	1656.6
292.85 K, 91180 kPa, x2 = 0.97	–	1609.5
292.85 K, 101320 kPa, x2 = 0.4999	–	1690.5
292.86 K, 15200 kPa, x2 = 0.5003	–	1333.8
292.86 K, 15200 kPa, x2 = 0.9391	–	1268.7
292.86 K, 30390 kPa, x2 = 0.1014	–	1449.6
292.86 K, 30390 kPa, x2 = 0.5003	–	1411.4
292.86 K, 30410 kPa, x2 = 0.9391	–	1352.9
292.86 K, 45590 kPa, x2 = 0.1014	–	1516.2
292.86 K, 45590 kPa, x2 = 0.5003	–	1480.8
292.86 K, 45590 kPa, x2 = 0.9391	–	1427.3
292.86 K, 45590 kPa, x2 = 0.97	–	1423.1
292.86 K, 60790 kPa, x2 = 0.1014	–	1577
292.86 K, 60790 kPa, x2 = 0.5003	–	1543.8
292.86 K, 60790 kPa, x2 = 0.9391	–	1494.1
292.86 K, 75990 kPa, x2 = 0.1014	–	1633.6
292.86 K, 75990 kPa, x2 = 0.5003	–	1602.5
292.86 K, 75990 kPa, x2 = 0.9391	–	1555.3
292.86 K, 91180 kPa, x2 = 0.1014	–	1686.1
292.86 K, 91180 kPa, x2 = 0.5003	–	1656.8
292.86 K, 91180 kPa, x2 = 0.9391	–	1612.7
292.86 K, 101320 kPa, x2 = 0.1014	–	1719.2
292.86 K, 101320 kPa, x2 = 0.9391	–	1647.3
292.86 K, 101320 kPa, x2 = 0.97	–	1645.4
292.87 K, 15200 kPa, x2 = 0	–	1384.9
292.87 K, 15200 kPa, x2 = 0.1014	–	1375.7
292.87 K, 15200 kPa, x2 = 0.3007	–	1355.3
292.87 K, 15200 kPa, x2 = 0.7007	–	1306.2
292.87 K, 30390 kPa, x2 = 0	–	1457.9
292.87 K, 30390 kPa, x2 = 0.3007	–	1430.9
292.87 K, 30390 kPa, x2 = 0.7007	–	1386.2
292.87 K, 45590 kPa, x2 = 0	–	1524.1
292.87 K, 45590 kPa, x2 = 0.3007	–	1498.8
292.87 K, 45590 kPa, x2 = 0.7007	–	1457.9
292.87 K, 60790 kPa, x2 = 0	–	1584.5
292.87 K, 60790 kPa, x2 = 0.3007	–	1560.6
292.87 K, 60790 kPa, x2 = 0.7007	–	1522.8
292.87 K, 75990 kPa, x2 = 0	–	1640.7
292.87 K, 75990 kPa, x2 = 0.3007	–	1618.5
292.87 K, 75990 kPa, x2 = 0.7007	–	1582.4
292.87 K, 91180 kPa, x2 = 0	–	1692.8
292.87 K, 91180 kPa, x2 = 0.3007	–	1671.5
292.87 K, 91180 kPa, x2 = 0.7007	–	1638
292.87 K, 101320 kPa, x2 = 0	–	1725.8
292.87 K, 101320 kPa, x2 = 0.3007	–	1705.1
292.87 K, 101320 kPa, x2 = 0.5003	–	1691
292.87 K, 101320 kPa, x2 = 0.7007	–	1672.6
292.87 K, 101320 kPa, x2 = 0.8496	–	1658.6
292.88 K, 15200 kPa, x2 = 0.8496	–	1284
292.88 K, 75990 kPa, x2 = 0.8496	–	1566.3
292.89 K, 101 kPa, x2 = 0	–	1299.5
292.89 K, 101 kPa, x2 = 0.3002	–	1267.5
292.89 K, 101 kPa, x2 = 0.3996	–	1255
292.89 K, 101 kPa, x2 = 0.6	–	1226.8
292.89 K, 101 kPa, x2 = 0.7002	–	1210.7
292.89 K, 101 kPa, x2 = 0.8995	–	1174.4
292.89 K, 30390 kPa, x2 = 0.8496	–	1366.5
292.89 K, 45590 kPa, x2 = 0.8496	–	1439.7
292.89 K, 60790 kPa, x2 = 0.8496	–	1505.9
292.89 K, 91180 kPa, x2 = 0.8496	–	1623.3
292.9 K, 101 kPa, x2 = 0.8	–	1193.4
292.91 K, 101 kPa, x2 = 0.1007	–	1289.6
292.91 K, 101 kPa, x2 = 0.2001	–	1279
292.91 K, 101 kPa, x2 = 0.5002	–	1241.3
293.15 K, 101 kPa, x2 = 0	748.921	–
293.15 K, 101 kPa, x2 = 0.0991	744.788	–
293.15 K, 101 kPa, x2 = 0.2008	740.186	–
293.15 K, 101 kPa, x2 = 0.2998	735.319	–
293.15 K, 101 kPa, x2 = 0.3996	729.97	–
293.15 K, 101 kPa, x2 = 0.5	724.072	–
293.15 K, 101 kPa, x2 = 0.6	717.632	–
293.15 K, 101 kPa, x2 = 0.7005	710.489	–
293.15 K, 101 kPa, x2 = 0.7995	702.66	–
293.15 K, 101 kPa, x2 = 0.8486	698.428	–
293.15 K, 101 kPa, x2 = 0.8988	693.851	–
293.15 K, 101 kPa, x2 = 0.9498	688.947	–
298.14 K, 30390 kPa, x2 = 0.97	–	1329.4
298.14 K, 30410 kPa, x2 = 0.9391	–	1333.2
298.14 K, 45590 kPa, x2 = 0.9391	–	1408.7
298.14 K, 45590 kPa, x2 = 0.97	–	1405.4
298.14 K, 60790 kPa, x2 = 0.9391	–	1476.6
298.14 K, 60790 kPa, x2 = 0.97	–	1473.9
298.14 K, 75990 kPa, x2 = 0.97	–	1536.2
298.14 K, 91180 kPa, x2 = 0.9391	–	1596.4
298.14 K, 91180 kPa, x2 = 0.97	–	1594.1
298.14 K, 101320 kPa, x2 = 0.9391	–	1632.6
298.14 K, 101320 kPa, x2 = 0.97	–	1630.6
298.15 K, 101 kPa, x2 = 0	745.269	–
298.15 K, 101 kPa, x2 = 0.0991	741.128	–
298.15 K, 101 kPa, x2 = 0.2008	736.497	–
298.15 K, 101 kPa, x2 = 0.2998	731.58	–
298.15 K, 101 kPa, x2 = 0.5	720.233	–
298.15 K, 101 kPa, x2 = 0.7005	706.501	–
298.15 K, 101 kPa, x2 = 0.7995	698.598	–
298.15 K, 101 kPa, x2 = 0.8486	694.34	–
298.15 K, 101 kPa, x2 = 0.8988	689.718	–
298.15 K, 101 kPa, x2 = 0.9498	684.775	–
298.15 K, 15200 kPa, x2 = 0.5003	–	1314.6
298.15 K, 15200 kPa, x2 = 0.9391	–	1247.1
298.15 K, 15200 kPa, x2 = 0.97	–	1242.9
298.15 K, 30390 kPa, x2 = 0.4999	–	1393.4
298.15 K, 30390 kPa, x2 = 0.5003	–	1393.3
298.15 K, 45590 kPa, x2 = 0.1014	–	1499.1
298.15 K, 45590 kPa, x2 = 0.4999	–	1464
298.15 K, 45590 kPa, x2 = 0.5003	–	1464.1
298.15 K, 45590 kPa, x2 = 0.7007	–	1440.8
298.15 K, 60790 kPa, x2 = 0.1014	–	1560.5
298.15 K, 60790 kPa, x2 = 0.3007	–	1544.4
298.15 K, 60790 kPa, x2 = 0.4999	–	1527.7
298.15 K, 60790 kPa, x2 = 0.5003	–	1528
298.15 K, 60790 kPa, x2 = 0.7007	–	1506.5
298.15 K, 75990 kPa, x2 = 0.1014	–	1618.2
298.15 K, 75990 kPa, x2 = 0.4999	–	1586.8
298.15 K, 75990 kPa, x2 = 0.5003	–	1587
298.15 K, 75990 kPa, x2 = 0.7007	–	1566.5
298.15 K, 75990 kPa, x2 = 0.9391	–	1538.7
298.15 K, 91180 kPa, x2 = 0.1014	–	1671
298.15 K, 91180 kPa, x2 = 0.4999	–	1641.7
